Reference: publication PMC12254355 (Nature Communications, 2025)
Ends that are not written are not given here.

Experiments:
P. aeruginosa PAO1 = conditions: PAO1, 24 h
human red blood cells = conditions: pH 7.4
[1] = system: E. faecium ATCC 700221 - VRE; conditions: ATCC 700221, 24 h
HEK293T cells = conditions: for CC50 vs HEK293T cells (source data of Figure 4a): 24 h
E. coli AIC221 = conditions: AIC221, 24 h
E. coli ATCC 11775 = conditions: ATCC 11775, 24 h
A. baumannii ATCC 19606 = conditions: ATCC 19606, 24 h
P. aeruginosa PA14 = conditions: PA14, 24 h

Row | Molecule | Minimal Inhibitory Concentration, P. aeruginosa PAO1 (-) (P. aeruginosa PAO1) [µmol/L] | HC50 (human red blood cells) | Minimal Inhibitory Concentration, E. faecium ATCC 700221 - VRE (+) [1] [µmol/L] | SIcytotoxicity (HEK293T cells) | Minimal Inhibitory Concentration, E. coli AIC221 (-) (E. coli AIC221) [µmol/L] | Minimal Inhibitory Concentration, E. coli ATCC 11775 (-) (E. coli ATCC 11775) [µmol/L] | Minimal Inhibitory Concentration, A. baumannii ATCC 19606 (-) (A. baumannii ATCC 19606) [µmol/L] | Minimal Inhibitory Concentration, P. aeruginosa PA14 (-) (P. aeruginosa PA14) [µmol/L] | CC50 vs HEK293T cells (HEK293T cells) [µM] | CC50 vs HEK293T cells (source data of Figure 4a) (HEK293T cells) [µM]
1 | QPRRVKRFKKFFKKLKNSVKKRAKKF [ISOB-7] | 64 | 569.0 | 32 | 4.0 | 64 |  |  |  |  | 
2 | RKFKWGSFKKILSAGKKLFKKAKKLSKNKNFKKALK [Arachnoserver-6] | 4 | 12.1 | 8 | 1.3 | 4 | 32 | 64 | 4 | 5 | 5.173
3 | LRAKMLNSKFIKL [Conoserver-5] |  | 1.085e+083 |  |  |  |  |  |  |  | 
4 | CC(C)C[C@H](NC(=O)[C@H](Cc1ccccc1)NC(=O)CNC(=O)[C@H](CCCNC(=N)N)NC(=O)[C@H](CCCNC(=N)N)NC(=O)[C@H](CCC(N)=O)NC(=O)[C@H](Cc1c[nH]c2ccccc12)NC(=O)[C@H](CC(C)C)NC(=O)[C@@H]1CCCN1C(=O)[C@H](CO)NC(=O)[C@H](C)NC(=O)[C@H](CCCNC(=N)N)NC(=O)CNC(=O)[C@H](CCCNC(=N)N)NC(=O)[C@@H](N)CCCCN)C(=O)N[C@@H](CO)C(=O)N[C@@H](CCCCN)C(=O)N[C@@H](CC(C)C)C(=O)N[C@@H](CCCCN)C(=O)N[C@@H](C)C(=O)N[C@@H](CCCNC(=N)N)C(=O)N[C@@H](C)C(=O)N[C@@H](CCCCN)C(=O)N[C@@H](CCCNC(=N)N)C(=O)N[C@@H](CC(N)=O)C(=O)NCC(=O)N[C@@H](C)C(=O)N[C@@H](Cc1ccccc1)C(=O)N[C@@H](Cc1c[nH]cn1)C(=O)N[C@@H](CC(C)C)C(=O)N1CCC[C@H]1C(=O)N[C@@H](CCCNC(=N)N)C(=O)O [Conoserver-7] | 64 | 1.085e+083 | 32 | 2.5 |  |  |  |  |  | 
5 | FLKKIWRSKLVKRL [UniprotKB-9] |  | 219457.0 |  | 1.3 |  |  |  | 16 | 20 | 20.18
6 | KRRRASPLWKRRRFLSMLKARAK [UniprotKB-10] |  | 627.2 | 32 | 1.3 |  |  |  |  |  | 43.12
7 | KLWNSKLARKIRTKGLKYVKNFAK [UniprotKB-3] |  | 8.23e+034 | 32 | 1.5 |  |  |  |  |  | 11.61
8 | RRVKRFKKFFKKL [ISOB-6] | 32 | 1.085e+083 | 32 | 6.5 |  |  |  | 64 |  | 
9 | LTKWLGKLGVIL [UniprotKB-11] |  | 146.7 |  | 4.4 |  |  |  |  |  | 
10 | RHRIVRTYIAKFGLK [ISOB-2] |  | 1.085e+083 | 32 | 7.5 | 64 |  |  |  |  | 
11 | PLWKRRRFLSMLKARAKR [Conoserver-4] | 64 | 707.7 | 32 | 2.6 |  |  |  |  |  | 
12 | RRVKRFKKFFMKL [UniprotKB-18] | 32 | 1.827e+053 | 32 | 3.1 | 64 |  |  |  |  | 
13 | RRASPLWKRRRFLSMLKARAKRTGYK [Conoserver-3] | 64 | 459.2 | 32 | 6.0 | 64 |  |  |  |  | 
14 | GKWLISSLVAKHL [UniprotKB-6] |  | 686.0 |  | 0.3 |  |  |  |  | 19 | 19.46
15 | KRLKGFAKKLWNSKLARKIRTKGLKYVKNFAK [UniprotKB-7] |  | 207.9 | 8 | 3.7 |  |  |  |  |  | 14.78
16 | SFKKILSAGKKLFKKAKKL [Arachnoserver-29] | 16 | 1.085e+083 | 16 | 4.3 | 4 | 16 |  | 16 |  | 17.1
17 | RLRAKMRNSKLFKLTKR [Conoserver-10] |  | 1.085e+083 |  |  |  |  |  |  |  | 
18 | KWLGKLGVILSHL [UniprotKB-15] |  | 1.374e+045 | 64 | 1.4 | 32 | 32 | 64 |  |  | 45.97
19 | KRRRASPLWKRRRFLSMLKARAK [Conoserver-2] | 64 | 1570.0 | 32 | 3.6 |  |  |  |  |  | 
20 | RKRRRFISMLKARAKRR [Conoserver-15] |  | 1.085e+083 | 32 | 0.7 |  |  |  |  |  | 22.52
21 | KQKYLIKRSRAKMQNHKLFKLTKR [Conoserver-16] |  | 1.085e+083 | 64 | 1.5 |  |  |  |  |  | 
22 | RQEYPTKRLRAKMLNSKFIKLIKR [Conoserver-12] |  | 1.085e+083 | 16 | 5.8 | 32 |  |  |  |  | 
23 | KRKGYLRLVPEERIWQKGLWWLRRLETDSDKLQK [ISOB-3] |  | 1.085e+083 |  |  |  |  |  |  |  | 
24 | KKQIRLYLLKYYGKKSSSKSVRKIVISK [Arachnoserver-20] |  | 896.7 | 32 | 2.8 |  |  |  |  |  | 
25 | KKWRELSRLSRVLQIL [Conoserver-14] | 64 | 1826.0 | 32 | 7.3 | 8 | 16 | 16 |  |  | 
